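Five compound concentrations were applied to cells in 96-well plates for 48 hours; endpoints were derived by simple linear interpolation of the resulting dose-response curve. At the GI50, growth is halved. TGI is the concentration that stops growth completely.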
Tests used:
Assay in all cases: NCI anticancer screen, dose series, 48 h
A549 NSCLC = tested on: A549 NSCLC
BT-549 breast = tested on: BT-549 breast
LOX IMVI melanoma = tested on: LOX IMVI melanoma
MALME-3M melanoma = tested on: MALME-3M melanoma
NCI-H23 lung = tested on: NCI-H23 lung
NCI-H460 lung = tested on: NCI-H460 lung
SF-295 CNS = tested on: SF-295 CNS
SK-OV-3 ovarian = tested on: SK-OV-3 ovarian
SW-620 colon = tested on: SW-620 colon
UACC-62 melanoma = tested on: UACC-62 melanoma

Row | Compound | TGI (A549 NSCLC) | TGI (BT-549 breast) | TGI (LOX IMVI melanoma) | TGI (MALME-3M melanoma) | TGI (NCI-H23 lung) | TGI (NCI-H460 lung) | TGI (SF-295 CNS) | TGI (SK-OV-3 ovarian) | TGI (SW-620 colon) | TGI (UACC-62 melanoma) | GI50 (A549 NSCLC) | GI50 (BT-549 breast) | GI50 (LOX IMVI melanoma) | GI50 (MALME-3M melanoma) | GI50 (NCI-H23 lung) | GI50 (NCI-H460 lung) | GI50 (SF-295 CNS) | GI50 (SK-OV-3 ovarian) | GI50 (SW-620 colon) | GI50 (UACC-62 melanoma)
1 | CSC(=S)OC1CC(n2cnc3c(NC(=O)c4ccccc4)ncnc32)OC1CO[Si](C)(C)C(C)(C)C (stereo unspecified) | > 100 µM | > 100 µM | 47.2 µM | 51.9 µM | > 56.2 µM | > 56.2 µM | > 56.2 µM | > 46.4 µM | > 56.2 µM | > 56.2 µM | – | – | – | – | – | – | – | – | – | –
2 | CC1=C(C(=O)Nc2cc(Cl)c3[nH]ncc3c2)C(c2ccc(C(F)(F)F)cc2)CC(=O)N1 (stereo unspecified) | > 25 µM | > 25 µM | > 25 µM | > 25 µM | > 25 µM | > 25 µM | > 25 µM | > 25 µM | > 25 µM | > 25 µM | > 25 µM | 5.07 µM | > 20.4 µM | 13.1 µM | > 25 µM | > 25 µM | 8.6 µM | > 25 µM | > 25 µM | 19 µM
3 | CC([C@H]1CCC2C3CCC4C[C@@H](N)CC[C@]4(C)C3CC[C@@]21C)N(C)C (stereo partly specified) | 24.7 µM | 28.1 µM | 3.44 µM | 5.11 µM | 37.2 µM | 6.04 µM | 22.5 µM | 30.4 µM | 7.73 µM | 5.67 µM | 8.45 µM | 5.9 µM | 1.61 µM | 1.88 µM | 13.8 µM | 2.4 µM | 6.46 µM | 13.4 µM | 2.74 µM | 2.36 µM
4 | Fc1cccc(-n2ccc(-c3ccccc3)nc2=S)c1 | > 87.3 µM | 26 µM | 29.5 µM | > 100 µM | 33.2 µM | > 100 µM | > 82.6 µM | 44.9 µM | > 100 µM | > 100 µM | 31.5 µM | 10.4 µM | 16.1 µM | 65.3 µM | 15 µM | > 100 µM | 44.1 µM | 1.59 µM | > 100 µM | > 54.6 µM
5 | CC1(N)CCN(c2cnc(-c3cccc(Cl)c3Cl)c(N)n2)CC1 | > 100 µM | 26.2 µM | 30 µM | 32.1 µM | > 100 µM | > 100 µM | 27.2 µM | 60.5 µM | > 100 µM | 39.9 µM | 16.6 µM | 10.8 µM | 15.3 µM | 16.4 µM | 5.99 µM | 32.7 µM | 11.1 µM | 3.02 µM | 19.3 µM | 19.1 µM
6 | CN(C)CCNc1c2ccccc2nc2oc3ccccc3c12 | 36 µM | 18.4 µM | 14.9 µM | 17.6 µM | – | 13.3 µM | 24.6 µM | 28.5 µM | 15.1 µM | 23.5 µM | 4.75 µM | 5.67 µM | 4.35 µM | 3.73 µM | – | 3.37 µM | 5.99 µM | 7.11 µM | 3.61 µM | 10.1 µM
7 | Oc1ccc(C2c3ccccc3Oc3ccccc32)c2cccnc12 | > 100 µM | > 100 µM | > 100 µM | 27.4 µM | > 100 µM | 5.1 µM | > 100 µM | > 100 µM | > 100 µM | 8.07 µM | 1.79 µM | 3.15 µM | 0.778 µM | 2.83 µM | 2.26 µM | 0.47 µM | 0.499 µM | 1.75 µM | 1.17 µM | 1.88 µM
8 | CCc1ccc(C(=Nc2ccc(N(C)C(=O)CN3CCN(C)CC3)cc2)c2c(O)[nH]c3ccc(C(=O)OC)cc23)cc1 | 1.64 µM | 2.65 µM | 1.63 µM | 1.9 µM | 2.03 µM | 2.21 µM | 2.4 µM | 1.23 µM | 1.29 µM | 3.2 µM | 0.319 µM | 1.32 µM | 0.337 µM | 0.516 µM | 0.417 µM | 0.748 µM | 1.01 µM | 0.245 µM | 0.259 µM | 1.37 µM
9 | CN(Cc1cc(Br)cc(Br)c1O)Cc1c(O)ccc2ccccc12 | 40.9 µM | 49 µM | 42.5 µM | 42.9 µM | 50.6 µM | 54.2 µM | 47.5 µM | 52 µM | > 100 µM | 41.3 µM | – | – | – | – | – | – | – | – | – | –
10 | O=C1C2CCN(CC2)C1(CO)CO | > 100 µM | 41.7 µM | 36 µM | 36.6 µM | 61.9 µM | > 100 µM | > 100 µM | > 100 µM | 36.3 µM | 42.1 µM | – | – | – | – | – | – | – | – | – | –
11 | CN1CCN(c2ccc(NC(=O)c3cncnc3Nc3ccc(OCc4ccccn4)c(Cl)c3)cc2)CC1 | 7.71 µM | 11.1 µM | 8.46 µM | 3.69 µM | 11.5 µM | 7.57 µM | 13.1 µM | 11.2 µM | 4.63 µM | 1.42 µM | 2.22 µM | 5.18 µM | 3.39 µM | 0.886 µM | 5.07 µM | 2.27 µM | 5.98 µM | 4.79 µM | 1.14 µM | 0.695 µM
12 | C=C1C(=O)O[C@H]2[C@H]1CC/C(COC(=O)C(C)c1ccc(CC(C)C)cc1)=C\CC[C@@]1(C)O[C@@H]21 (stereo partly specified) | 3.65 µM | 1.89 µM | 3.01 µM | 2.99 µM | 3.92 µM | 3.16 µM | 7.39 µM | 21.4 µM | 1.95 µM | 2.85 µM | 1.8 µM | 0.533 µM | 1.54 µM | 1.56 µM | 1.77 µM | 1.56 µM | 2.47 µM | 9.7 µM | 0.534 µM | 1.48 µM
13 | Cc1cc2c(C(N)=O)c(N)n(-c3c(C)ccc(O)c3C)c2nc1C | 47.4 µM | 16.7 µM | 4.85 µM | 18.3 µM | 4.16 µM | 31.2 µM | 35.4 µM | 89 µM | 56.4 µM | – | 4.53 µM | 3.06 µM | 1.5 µM | 3.08 µM | 1.25 µM | 4.77 µM | 0.871 µM | 12.2 µM | 3.17 µM | –

Reference: PubChem BioAssay (NCI)
